Common to all, as to format: in vivo
Test [1] deals with AVEFA: wild oats (Avena fatua). Kind of test: Pre-emergent Test I herbicidal activity. The conditions noted are these: pre-emergence, 336 h, read-out: Visual Growth Reduction (%) 14 Days After Application, AVEFA; for pest or weed control at 3840 g/ha: 3.84 kg ai/ha. On the procedure: (§1) Pre-emergent Test I Seeds of test species were planted into round plastic pots (5-inch diameter) containing sandy loam soil. After planting, all pots were sub-irrigated 16 h prior to compound application. Compounds were dissolved in a 97:3 v/v (volume/volume) mixture of acetone and dimethyl sulfoxide (DMSO) and diluted to the appropriate concentration in a final application solution containing water, acetone, isopropanol, DMSO and Agri-dex (crop oil concentrate) in a 59:23:15:1.0:1.5 v/v ratio and 0.02% w/v (weight/volume) of Triton X-155 to obtain the spray solution containing the highest application rate. Additional application rates were obtained by serial dilution of the high rate solution with the above application solution. Formulated compound (2.7 mL) was applied pipetted evenly over the soil surface followed by incorporation with water (15 mL). Following treatment, pots were returned to the greenhouse for the duration of the experiment. The greenhouse was programmed for an approximate 15 h photoperiod which was maintained at about 23-29° C. during the day and 22-28° C. during the night. Nutrients and water were added on a regular basis through surface irrigation and supplemental lighting was provided with overhead metal halide 1000-Watt lamps as necessary. Herbicidal effect ratings were obtained 14 days after treatment. All evaluations were made relative to appropriate controls on a scale of 0 to 100 where 0 represents no herbicidal effect and 100 represents plant death or lack of emergence from the soil.

Test [2] deals with SETFA: giant foxtail (Setaria faberi). Kind of test: Pre-emergent Test I herbicidal activity. The conditions noted are these: pre-emergence, 336 h, read-out: Visual Growth Reduction (%) 14 Days After Application, SETFA; for pest or weed control at 3840 g/ha: 3.84 kg ai/ha. How it is done:
as §1

Test [3] relates to HELAN: sunflower (Helianthus annuus). Kind of test: Pre-emergent Test I herbicidal activity. To be noted: pre-emergence, 336 h, read-out: Visual Growth Reduction (%) 14 Days After Application, HELAN; for pest or weed control at 3840 g/ha: 3.84 kg ai/ha. How it is done: as §1
Test [4] concerns AMARE: redroot pigwseed (Amaranthus retroflexus). Kind of test: Pre-emergent Test I herbicidal activity. To be noted: pre-emergence, 336 h, read-out: Visual Growth Reduction (%) 14 Days After Application, AMARE; for pest or weed control at 3840 g/ha: 3.84 kg ai/ha. On the procedure:
as §1

Test [5] deals with IPOHE: ivyleaf morningglory (Ipomoea hederecea). The test can be described thus: Pre-emergent Test I herbicidal activity. The conditions noted are these: pre-emergence, 336 h, read-out: Visual Growth Reduction (%) 14 Days After Application, IPOHE; for pest or weed control at 3840 g/ha: 3.84 kg ai/ha. On the procedure:
as §1

In test [6] the test system is ECHCG: barnyardgrass (Echinochloa crus-galli). The test can be described thus: Pre-emergent Test I herbicidal activity. The conditions noted are these: pre-emergence, 336 h, read-out: Visual Growth Reduction (%) 14 Days After Application, ECHCG; for pest or weed control at 3840 g/ha: 3.84 kg ai/ha. How it is done: as §1
The subject of test [7] is LAMSS. Kind of test: Post-emergent Test III, herbicidal activity in wheat and barley. The conditions noted are these: for pest or weed control at 35 g/ha / pest or weed control at 70 g/ha / pest or weed control at 140 g/ha: post-emergence, 504 h, read-out: Visual Growth Reduction (%) 21 Days After Application LAMSS; for pest or weed control at 35 g/ha: 35 g ai/ha; for pest or weed control at 70 g/ha: 70 g ai/ha; for pest or weed control at 140 g/ha: 140 g ai/ha; for GR50 LAMSS / GR80 LAMSS: probit analysis, 21 days after application; for GR50 LAMSS: dose for growth reduction of 50 percent; for GR80 LAMSS: dose for growth reduction of 80 percent. In outline:
(§2)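 Plants at the second to third true-leaf stage, grown in a greenhouse at about 18/17 °C with a 14 h photoperiod, were sprayed post-emergence at 187 L/ha with the high rate and ½× to 1/16× serial dilutions in an acetone/DMSO/crop-oil/surfactant carrier. Injury was rated visually at 21 d on a 0–100% scale, and GR20–GR90 were derived by probit analysis.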

Test [8] has as its system BROTE: downy brome (Bromus tectorum). The description is as above. To be noted: for pest or weed control at 35 g/ha / pest or weed control at 70 g/ha / pest or weed control at 140 g/ha: Bromus tectorum, post-emergence, 504 h, read-out: Visual Growth Reduction (%) 21 Days After Application BROTE; for pest or weed control at 35 g/ha: 35 g ai/ha; for pest or weed control at 70 g/ha: 70 g ai/ha; for pest or weed control at 140 g/ha: 140 g ai/ha; for GR50 BROTE / GR80 BROTE: probit analysis, 21 days after application; for GR50 BROTE: dose for growth reduction of 50 percent; for GR80 BROTE: dose for growth reduction of 80 percent. In short, it runs like this:
as §2

Test [9] has as its system VERPE: bird's-eye speedwell (veronica persica). The test is described as above. The conditions noted are these: for pest or weed control at 35 g/ha / pest or weed control at 70 g/ha / pest or weed control at 140 g/ha: Veronica persica, post-emergence, 504 h, read-out: Visual Growth Reduction (%) 21 Days After Application VERPE; for pest or weed control at 35 g/ha: 35 g ai/ha; for pest or weed control at 70 g/ha: 70 g ai/ha; for pest or weed control at 140 g/ha: 140 g ai/ha; for GR50 VERPE / GR80 VERPE: probit analysis, 21 days after application; for GR50 VERPE: dose for growth reduction of 50 percent; for GR80 VERPE: dose for growth reduction of 80 percent. In short, it runs like this: as §2

Take `COC(=O)c1nc(-c2ccc(C#N)cc2F)cc(N)c1Cl` [Compound 16]: the pest or weed control at 3840 g/ha in test [1] was 30 to 44%; in [2], 0 to 29%; in test [3] it was 95 to 100%; in [4] it was 95 to 100%; in [5] it was 95 to 100%; in test [6], 30 to 44%.

Consider `COC(=O)c1nc(-c2ccc(OC(F)F)cc2)c(F)c(N)c1Cl` [Compound 85], for which, in test [1] (3.76 kg ai/ha), the pest or weed control at 3760 g/ha was 75 to 84%. The pest or weed control at 3760 g/ha in test [3] (3.76 kg ai/ha) is 95 to 100%. The pest or weed control at 3760 g/ha in test [4] (3.76 kg ai/ha) fell in the range of 95 to 100%. The pest or weed control at 3760 g/ha in test [5] (3.76 kg ai/ha) was 30 to 44%. The pest or weed control at 3760 g/ha in [6] (3.76 kg ai/ha) lay in the range of 95 to 100%. In test [7], the pest or weed control at 35 g/ha was in the range of 85 to 94%, the pest or weed control at 70 g/ha lay in the range of 85 to 94%, the pest or weed control at 140 g/ha was 85 to 94% and the “GR50 LAMSS” value was determined as 0 g ai/ha. Also, in test [7], the “GR80 LAMSS” value was 6 g ai/ha. Further, in [8], the pest or weed control at 35 g/ha was 0 to 29%, the pest or weed control at 70 g/ha was in the range of 0 to 29%, the pest or weed control at 140 g/ha lay within 0 to 29% and the “GR50 BROTE” value is reported as above 140 g ai/ha. For the same molecule, in test [8], the “GR80 BROTE” value is on record as above 140 g ai/ha. Further, in [9], the pest or weed control at 35 g/ha was 30 to 44%, the pest or weed control at 70 g/ha lay in the range of 45 to 59%, the pest or weed control at 140 g/ha was 60 to 74% and the “GR50 VERPE” value is recorded as 90 g ai/ha. In addition, in test [9], the “GR80 VERPE” value was above 140 g ai/ha.

`COC(=O)c1nc(-c2ccc(I)cc2)c(F)c(N)c1Cl` [Compound 118, Methyl 4-amino-6-(4-iodophenyl)-3-chloro-5-fluoropicolinate]: the pest or weed control at 2320 g/ha in test [1] (2.32 kg ai/ha) lay in the range of 95 to 100%. Further, in [3] (2.32 kg ai/ha), the pest or weed control at 2320 g/ha lay in the range of 95 to 100%. The pest or weed control at 2320 g/ha in [4] (2.32 kg ai/ha) lay within 95 to 100%. Further, the pest or weed control at 2320 g/ha in [5] (2.32 kg ai/ha) lay within 95 to 100%. The pest or weed control at 2320 g/ha in [6] (2.32 kg ai/ha) was in the range of 95 to 100%. In test [7], the pest or weed control at 35 g/ha fell in the range of 95 to 100%, the pest or weed control at 70 g/ha lay in the range of 95 to 100%, the pest or weed control at 140 g/ha lay within 95 to 100% and the “GR50 LAMSS” value is recorded as 1 g ai/ha. Also, in test [7], the “GR80 LAMSS” value is reported as 0 g ai/ha. Besides, in test [8], the pest or weed control at 35 g/ha lay within 60 to 74%, the pest or weed control at 70 g/ha lay in the range of 85 to 94%, the pest or weed control at 140 g/ha lay in the range of 85 to 94% and the “GR50 BROTE” value was 31 g ai/ha. Besides, the “GR80 BROTE” value in test [8] was 64 g ai/ha. Further, in test [9], the pest or weed control at 35 g/ha was 85 to 94%, the pest or weed control at 70 g/ha was 85 to 94%, the pest or weed control at 140 g/ha was 95 to 100% and the “GR50 VERPE” value is on record as 5 g ai/ha. In addition, in test [9], the “GR80 VERPE” value stood at 17 g ai/ha.

For the molecule `COC(=O)c1nc(-c2ccc(C#N)cc2)c(F)c(N)c1Cl` [Compound 142], the pest or weed control at 3840 g/ha in test [1] is 95 to 100%. In test [3], the pest or weed control at 3840 g/ha was in the range of 95 to 100%. Also, the pest or weed control at 3840 g/ha in test [4] fell in the range of 95 to 100%. In addition, the pest or weed control at 3840 g/ha in test [5] was in the range of 95 to 100%. In test [6], the pest or weed control at 3840 g/ha lay within 30 to 44%. Moreover, in test [7], the pest or weed control at 35 g/ha lay in the range of 85 to 94%, the pest or weed control at 70 g/ha was in the range of 85 to 94%, the pest or weed control at 140 g/ha lay within 85 to 94% and the “GR50 LAMSS” value was 0 g ai/ha. The “GR80 LAMSS” value in [7] was found to be 5 g ai/ha. In test [8], the pest or weed control at 35 g/ha fell in the range of 0 to 29%, the pest or weed control at 70 g/ha lay within 0 to 29%, the pest or weed control at 140 g/ha was in the range of 0 to 29% and the “GR50 BROTE” value is listed as above 140 g ai/ha. The “GR80 BROTE” value in test [8] is on record as above 140 g ai/ha. Moreover, in test [9], the pest or weed control at 35 g/ha fell in the range of 75 to 84%, the pest or weed control at 70 g/ha was in the range of 85 to 94%, the pest or weed control at 140 g/ha fell in the range of 85 to 94% and the “GR50 VERPE” value amounted to 5 g ai/ha. The “GR80 VERPE” value in test [9] stood at 40 g ai/ha.

Take `N#Cc1ccc(-c2nc(C(=O)O)c(Cl)c(N)c2F)cc1F` [Compound 156]: the pest or weed control at 4040 g/ha in test [1] (4.04 kg ai/ha) lay within 75 to 84%; in [2] (4.04 kg ai/ha), 95 to 100%; in [3] (4.04 kg ai/ha), 95 to 100%; in [4] (4.04 kg ai/ha) it was 95 to 100%; in [5] (4.04 kg ai/ha), 95 to 100%; in [6] (4.04 kg ai/ha), 95 to 100%.

With `COC(=O)c1nc(-c2ccccc2)c(F)c(N)c1Cl` [Compound 181], the pest or weed control at 1760 g/ha in test [1] (1.76 kg ai/ha) was in the range of 0 to 29%; in test [2] (1.76 kg ai/ha) it was 75 to 84%; in test [3] (1.76 kg ai/ha), 85 to 94%; in test [4] (1.76 kg ai/ha) it was 95 to 100%; in test [5] (1.76 kg ai/ha) it was 85 to 94%.

Regarding `COC(=O)c1nc(-c2ccc(C(F)F)c(F)c2)cc(N)c1Cl` [Compound 196], the pest or weed control at 3840 g/ha was 95 to 100% in test [2]; 95 to 100% in [3]; 95 to 100% in test [4]; 95 to 100% in test [5]; 85 to 94% in [6].

Source of the values: patent US9113629B2, “4-amino-6-(4-substituted-phenyl)-picolinates and 6-amino-2-(4-substituted-phenyl)-pyrimidine-4-carboxylates and their use as herbicides” (DOW AGROSCIENCES LLC, priority 2013, dated 2015).
